Data taken from PMC9271048, “Probing strigolactone perception mechanisms with rationally designed small-molecule agonists stimulating germination of root parasitic weeds” (Nature Communications, 2022).

Legend:
[1] = test system: ShHTL7S95A; assay: Hydrolysis reaction analysis with ShHTL7 S95A mutant; type: biochemical, Striga hermonthica; settings: Supplementary Figs. 20a, 24a
Description: Compounds 4a, (R)- and (S)-4a, 4g-i, and rac-GR24 were dissolved in DMSO and prepared as stock solution ([…]) just before use. A 200 μL of the reaction solution consisting of PBS buffer (pH 7.3), 10 μM samples, and 10 μg recombinant ShHTL7 or its mutants was incubated at 30 °C for 30 min; with the reaction solution (200 μL) containing PBS buffer (pH 7.3) and 10 μM samples as the blank control[40],[52]. Subsequently, the reaction was terminated by adding 200 μL of methanol, and then the reaction mixture was shaken for 10 s and centrifuged at 5310 × g for 60 s. The supernatant was filtered and the remaining amount of samples was analyzed by HPLC. The relative percentages of hydrolysis were obtained by using the amount of compounds in blank control as reference.
Supplementary Fig. 20. Effect of key amino acid residues on the hydrolysis of ShHTL7 and binding affinity. a, Relative percentage of hydrolysis of compound (S)-4a by ShHTL7S95A, ShHTL7H246A, and ShHTL7. The error bar indicates SD (n = 3 biologically independent experiments). b, Competitive mutants of ShHTL7 inhibitory activity in YLG assay. Data are the means ± SD (n = 3 biologically independent experiments).
(1 picture or pasted object on this page, not shown here) […]

[2] = biological target: ShHTL7 T124K (Striga hermonthica, UniProt A0A0M3PNA2); assay: YLG competitive inhibition, ShHTL7 mutant T124K; type: biochemical; settings: read-out: IC50 (YLG), ShHTL7 mutant, source data average, Supplementary Fig. 20b
Excerpt: (§1) To clarify the dynamics of how the catalytic triad affects hydrolysis by ShHTL7, we performed MD simulations to study the differences between (R)-4a and (S)-4a (Supplementary Fig. 21). […] To further characterize our computational models, we performed mutation studies of the key residues in the active pockets that may have interactions with our molecules. Indeed, a number of the mutations of specific residues altered the IC50 values, supporting our simulated models (Supplementary Fig. 20b).
(§2) The excitation and emission wavelengths of YLG are 480 and 520 nm, respectively. We used a fluorescence spectrophotometer (CARY Eclipse) to detect the fluorescence intensity change of YLG during the enzymatic hydrolysis assay process. All the testing compounds and YLG were dissolved in DMSO and prepared as stock solutions just before use. […] The changes of fluorescence at 520 nm of each well were recorded every 1 min for 30 min. Using the reaction mixture without adding enzyme and tested compounds as the background control. After subtracting the background hydrolysis, a linear fluorescence increase in 8 min was used for further inspection. The IC50 values were determined via fitting relative inhibition percentages with the varying concentrations of compounds in Microsoft Excel.
(§3) Supplementary Fig. 20. […]

[3] = biological target: ShHTL7 T142L (Striga hermonthica, UniProt A0A0M3PNA2, T142L); assay: YLG competitive inhibition, ShHTL7 mutant T142L; type: biochemical
Excerpt: as §1, §2, §3

[4] = biological target: ShHTL7 M219A (Striga hermonthica, UniProt A0A0M3PNA2, M219A); assay: YLG competitive inhibition, ShHTL7 mutant M219A; type: biochemical
Excerpt: as §1, §2, §3

[5] = biological target: ShHTL7 M219V (Striga hermonthica, UniProt A0A0M3PNA2, M219V); assay: YLG competitive inhibition, ShHTL7 mutant M219V; type: biochemical
Excerpt: as §1, §2, §3

[6] = biological target: ShHTL7 F134A (Striga hermonthica, UniProt A0A0M3PNA2, F134A); assay: YLG competitive inhibition, ShHTL7 mutant F134A; type: biochemical
Excerpt: as §1, §2, §3

[7] = biological target: ShHTL7 S95C (Striga hermonthica, UniProt A0A0M3PNA2, S95C); assay: YLG competitive inhibition, ShHTL7 mutant S95C; type: biochemical
Excerpt: as §1, §2, §3

[8] = biological target: ShHTL7 T190F (Striga hermonthica, UniProt A0A0M3PNA2, T190F); assay: YLG competitive inhibition, ShHTL7 mutant T190F; type: biochemical
Excerpt: as §1, §2, §3

[9] = biological target: ShHTL7 L161A (Striga hermonthica, UniProt A0A0M3PNA2, L161A); assay: YLG competitive inhibition, ShHTL7 mutant L161A; type: biochemical
Excerpt: as §1, §2, §3

Chain of ShHTL7 T190F (A0A0M3PNA2 whole entry T190F): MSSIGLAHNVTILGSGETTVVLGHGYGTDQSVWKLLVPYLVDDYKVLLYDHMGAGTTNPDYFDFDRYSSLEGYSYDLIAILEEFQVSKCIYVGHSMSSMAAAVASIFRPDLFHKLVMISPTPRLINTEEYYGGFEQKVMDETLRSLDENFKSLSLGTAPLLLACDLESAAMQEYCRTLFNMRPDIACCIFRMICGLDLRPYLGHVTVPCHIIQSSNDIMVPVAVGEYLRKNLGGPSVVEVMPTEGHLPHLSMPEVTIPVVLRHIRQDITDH
Chain of ShHTL7 M219A (A0A0M3PNA2 whole entry M219A): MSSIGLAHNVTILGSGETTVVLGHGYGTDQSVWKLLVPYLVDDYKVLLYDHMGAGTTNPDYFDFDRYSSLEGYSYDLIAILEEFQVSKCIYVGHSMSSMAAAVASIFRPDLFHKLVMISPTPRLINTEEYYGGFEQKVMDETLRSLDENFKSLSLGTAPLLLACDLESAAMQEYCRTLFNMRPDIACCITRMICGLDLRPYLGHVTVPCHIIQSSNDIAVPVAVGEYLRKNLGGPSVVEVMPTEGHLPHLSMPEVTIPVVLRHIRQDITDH
Chain of ShHTL7 T124K (A0A0M3PNA2 entry or part of it, stated change not applied): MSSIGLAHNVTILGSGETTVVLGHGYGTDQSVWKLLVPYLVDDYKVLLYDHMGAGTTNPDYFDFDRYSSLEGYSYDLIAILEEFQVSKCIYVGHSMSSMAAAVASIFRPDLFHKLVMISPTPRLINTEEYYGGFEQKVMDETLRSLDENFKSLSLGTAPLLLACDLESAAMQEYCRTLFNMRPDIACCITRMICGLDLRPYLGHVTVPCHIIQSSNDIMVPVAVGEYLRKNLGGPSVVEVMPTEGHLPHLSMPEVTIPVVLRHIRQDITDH
Chain of ShHTL7 S95C (A0A0M3PNA2 whole entry S95C): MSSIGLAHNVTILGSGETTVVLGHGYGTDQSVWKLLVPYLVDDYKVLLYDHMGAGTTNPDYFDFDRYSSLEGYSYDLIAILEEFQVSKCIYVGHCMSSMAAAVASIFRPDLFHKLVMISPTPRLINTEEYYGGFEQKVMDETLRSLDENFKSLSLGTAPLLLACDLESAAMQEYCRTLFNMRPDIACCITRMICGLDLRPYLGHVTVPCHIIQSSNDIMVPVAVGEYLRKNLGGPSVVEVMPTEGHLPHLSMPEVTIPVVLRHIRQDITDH
Chain of ShHTL7 F134A (A0A0M3PNA2 whole entry F134A): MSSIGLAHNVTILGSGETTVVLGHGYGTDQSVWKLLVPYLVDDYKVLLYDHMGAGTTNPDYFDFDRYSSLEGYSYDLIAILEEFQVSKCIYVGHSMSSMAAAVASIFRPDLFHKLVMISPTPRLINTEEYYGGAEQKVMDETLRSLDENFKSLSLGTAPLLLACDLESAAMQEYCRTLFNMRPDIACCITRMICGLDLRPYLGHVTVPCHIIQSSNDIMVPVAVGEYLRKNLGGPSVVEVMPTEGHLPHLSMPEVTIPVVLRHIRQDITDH
Chain of ShHTL7 T142L (A0A0M3PNA2 whole entry T142L): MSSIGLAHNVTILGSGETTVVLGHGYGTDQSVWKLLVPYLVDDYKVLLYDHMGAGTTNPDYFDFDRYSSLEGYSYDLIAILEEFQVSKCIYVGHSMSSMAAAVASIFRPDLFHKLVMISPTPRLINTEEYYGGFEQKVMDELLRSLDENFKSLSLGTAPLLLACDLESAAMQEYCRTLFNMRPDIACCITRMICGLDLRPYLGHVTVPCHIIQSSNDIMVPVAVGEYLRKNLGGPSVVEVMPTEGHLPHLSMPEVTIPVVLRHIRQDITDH
Chain of ShHTL7 L161A (A0A0M3PNA2 whole entry L161A): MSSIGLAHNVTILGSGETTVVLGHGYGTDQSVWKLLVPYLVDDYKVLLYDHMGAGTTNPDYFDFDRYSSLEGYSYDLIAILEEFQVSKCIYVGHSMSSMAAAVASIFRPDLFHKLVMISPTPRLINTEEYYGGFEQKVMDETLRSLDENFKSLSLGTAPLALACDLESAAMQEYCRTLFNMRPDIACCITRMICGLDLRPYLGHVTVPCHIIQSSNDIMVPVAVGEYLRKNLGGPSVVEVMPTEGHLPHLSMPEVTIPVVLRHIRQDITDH
Chain of ShHTL7 M219V (A0A0M3PNA2 whole entry M219V): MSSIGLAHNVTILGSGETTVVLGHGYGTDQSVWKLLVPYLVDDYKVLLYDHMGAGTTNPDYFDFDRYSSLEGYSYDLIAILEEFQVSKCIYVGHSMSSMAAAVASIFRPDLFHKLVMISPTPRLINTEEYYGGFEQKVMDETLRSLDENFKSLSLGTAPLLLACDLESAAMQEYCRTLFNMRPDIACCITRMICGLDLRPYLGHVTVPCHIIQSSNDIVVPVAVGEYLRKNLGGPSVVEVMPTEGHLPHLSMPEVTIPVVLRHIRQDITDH

Structure (SMILES) | relative percentage of hydrolysis by ShHTL7S95A, source data average [1] [%] | IC50 [2] [nM] | IC50 [3] [nM] | IC50 [4] [nM] | IC50 [5] [nM] | IC50 [6] [nM] | IC50 [7] [nM] | IC50 [8] [nM] | IC50 [9] [nM]
CC1=CC(OC(=O)N2CCN(C(=O)COc3ccc(Br)cc3C)CC2)CC1=O (stereo not drawn) [4g] | 3.871 | – | – | – | – | – | – | – | –
CC1=C[C@@H](OC(=O)N2CCN(C(=O)COc3ccc(Br)cc3C)CC2)OC1=O [(R)-4a] | – | 1000 | 1880 | > 100000 | 22000 | 58100 | 43700 | 4690 | 100000
CC1=C[C@H](OC(=O)N2CCN(C(=O)COc3ccc(Br)cc3C)CC2)OC1=O [(S)-4a] | 1.485 | 435 | 300 | 6530 | 347 | 531 | 293 | 1070 | 155
